According to publication PMC9112895, “Selective Inhibition of Plasmodium falciparum ATPase 6 by Artemisinins and Identification of New Classes of Inhibitors after Expression in Yeast” (Antimicrobial Agents and Chemotherapy, 2022):
Marks after values point to notes of the source that are not given here.

Tests used:
PfATP6 [1] = target: T1, PfATP6 (Plasmodium falciparum, UniProt Q08853); assay: Yeast whole-cell growth inhibition (functional rescue) assay, K667[PfATP6]; assay type: cell-based; design: pUGpd containing the yeast-optimized coding region of PfATP6 from Plasmodium falciparum; expressed in transfected cells; host or cells: Saccharomyces cerevisiae K667 and K667Δpdr5::HIS
T1 sequence (Q08853 whole entry): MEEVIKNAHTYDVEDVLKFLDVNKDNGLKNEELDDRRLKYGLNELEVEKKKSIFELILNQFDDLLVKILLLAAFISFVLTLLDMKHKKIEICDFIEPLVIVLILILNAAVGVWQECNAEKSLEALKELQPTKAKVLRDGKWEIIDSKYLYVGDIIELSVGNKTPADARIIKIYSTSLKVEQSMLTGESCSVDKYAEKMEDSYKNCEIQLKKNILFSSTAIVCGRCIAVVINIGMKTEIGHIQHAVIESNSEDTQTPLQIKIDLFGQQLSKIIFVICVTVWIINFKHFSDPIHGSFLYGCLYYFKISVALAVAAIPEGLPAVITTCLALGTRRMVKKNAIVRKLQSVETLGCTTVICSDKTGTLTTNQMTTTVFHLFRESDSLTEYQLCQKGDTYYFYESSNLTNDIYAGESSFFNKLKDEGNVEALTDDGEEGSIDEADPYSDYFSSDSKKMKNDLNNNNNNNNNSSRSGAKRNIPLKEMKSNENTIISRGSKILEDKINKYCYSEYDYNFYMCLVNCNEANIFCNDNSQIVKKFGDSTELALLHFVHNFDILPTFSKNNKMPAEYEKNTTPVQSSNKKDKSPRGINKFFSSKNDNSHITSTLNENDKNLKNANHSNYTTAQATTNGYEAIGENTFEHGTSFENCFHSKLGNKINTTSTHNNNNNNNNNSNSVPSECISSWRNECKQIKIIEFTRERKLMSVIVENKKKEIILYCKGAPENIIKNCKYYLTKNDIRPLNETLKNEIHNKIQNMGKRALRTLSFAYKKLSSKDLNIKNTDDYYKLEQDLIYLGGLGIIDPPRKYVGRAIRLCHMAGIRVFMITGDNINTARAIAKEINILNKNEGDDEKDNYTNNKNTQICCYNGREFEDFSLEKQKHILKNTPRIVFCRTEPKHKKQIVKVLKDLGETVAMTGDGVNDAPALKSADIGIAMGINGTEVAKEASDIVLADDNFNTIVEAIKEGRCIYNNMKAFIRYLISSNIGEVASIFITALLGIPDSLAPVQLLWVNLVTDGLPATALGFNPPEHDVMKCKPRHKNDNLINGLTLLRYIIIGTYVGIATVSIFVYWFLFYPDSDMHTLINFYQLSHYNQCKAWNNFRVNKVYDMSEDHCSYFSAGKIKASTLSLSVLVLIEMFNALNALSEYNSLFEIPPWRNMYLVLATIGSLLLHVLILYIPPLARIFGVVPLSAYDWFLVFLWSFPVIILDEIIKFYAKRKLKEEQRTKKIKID
Description: (§1) The screening assay used here was developed from the protocol used by Pulcini et al. ([13]). A single colony of the yeast strain to be screened was picked and grown in 5 mL of selective medium until stationary phase was reached. The culture was diluted 100-fold in ampicillin-supplemented yeast extract-peptone-dextrose (YPD) medium to an OD at 620 nm (OD620) equivalent to that of lag phase. YPD medium was supplemented with an appropriate concentration of calcium, depending on the transformed strain. […] The optimal calcium concentration was periodically monitored and, if necessary, adjusted using a calcium concentration range of 10 to 30 mM. A final volume of 200 μL of the yeast culture was added to each well of a 96-well plate, with 5 technical replicates included per inhibitor. All inhibitors were dissolved in dimethyl sulfoxide (DMSO) unless otherwise stated. […] The 96-well plates were incubated at 30°C for 42 h. The yeast growth was estimated from the absorbance at 620 nm in a Tecan plate reader. Growth was normalized with the no-drug control to present data as percent growth. The data collected were analyzed using GraphPad Prism v9.0 (GraphPad software, San Diego, CA, U.S.A).

PfATP6 [2] = target: T1, PfATP6; assay: cell-based; assay type: cell-based; design: pUGpd containing the yeast-optimized coding region of PfATP6 from Plasmodium falciparum; expressed in transfected cells; host or cells: Saccharomyces cerevisiae K667 and K667Δpdr5::HIS; settings: for Fold difference: IC50 K667[PfATP6] versus K667Δpdr5[PfATP6]; for inhibition of PfATP6 in compound screen: growth inhibition, K667Δpdr5[PfATP6]
Description: as §1

[3] = test system: cytosolic Ca2+ concentration in parasites; assay: Parasite calcium homeostasis (YC-Nano biosensor, flow cytometry); assay type: cell-based, Plasmodium falciparum; settings: 25 μM, YC-Nano-expressing parasites
Description: Three biological replicates were carried out, after an initial blinded experiment.

PfATP6 [4] = target: T1, PfATP6; assay: DHA-biotin labeling / pulldown, Western blot and mass spectrometry; assay type: binding; design: pUGpd containing the yeast-optimized coding region of PfATP6 from Plasmodium falciparum; expressed in transfected cells; host or cells: Saccharomyces cerevisiae K667 and K667Δpdr5::HIS
Description: Both whole yeast and microsomes were prepared for mass spectrometric analysis by addition of 500 nM biotin-tagged DHA probe to 200 μL (∼0.6 mg protein) of yeast microsome preparation or 10 μM probe to 50 to 100 mL yeast culture at an OD620 of 1.0 to 1.5 (∼35 to 70 mg total protein) and incubation for 4 h at 30°C. For competition studies, 25× artesunate was added and incubated for 30 min before addition of the probe and incubation for 4 h at 30°C. Samples were then acetone precipitated by adding 4 volumes of −20°C acetone/water (4:1) to the yeast pellet or microsomal pellet and incubating the mixture for 2 h to overnight at −20°C. The samples were then pelleted at 13,000 to 16,000 × g for 10 min at 0°C to 4°C and washed twice with −20°C acetone/water solution. After a final centrifugation, pellets were dried in a freeze-drier for 1 h. Subsequent pulldowns and liquid chromatography-tandem mass spectrometry were performed as described by Wang et al. ([18]).
A 0.3-mg aliquot of PfATP6-enriched membrane vesicles, as well as an aliquot of SERCA1a and vector-only membrane vesicles, were thawed on ice. One-half of each aliquot (0.15 mg) was preincubated with 12.5 μM artesunate at 30°C for 30 min. Then, all samples had 500 nM DHA-biotin probe added (NewChem Technologies) and were incubated at 30°C for 4 h. […] Blots were analyzed using the Odyssey scanner system. […]

Plasmodium falciparum = assay: In vitro parasite assay ([3H]hypoxanthine uptake); assay type: cell-based; settings: parasites in vitro, read-out: antiparasitic potency IC50
Description: Inhibitor IC50s were calculated in parasite assays following the protocol described by Desjardins et al. ([52]). Briefly, cultures were synchronized to ring stage by D-sorbitol lysis, using a 5% D-sorbitol solution. The parasites were diluted to a final parasitemia of 1%. Hypoxanthine-free medium was added to give a hematocrit level of 4%. A 2-fold dilution series of the inhibitors in hypoxanthine-free medium was prepared, and 100 μL of each inhibitor concentration was seeded in a 96-well plate, with 5 technical replicates of each included. Two no-inhibitor controls, i.e., hypoxanthine-free medium only, were included. Plates were incubated at 37°C in 5% CO2 for 24 h. After 24 h, [^3H]hypoxanthine was added to each well to a final concentration of 0.5 μCi/well, and the plates were incubated for a further 24 h. Plates were then freeze-thawed to lyse the cells, and the [^3H]hypoxanthine uptake was measured in a Beckman scintillation counter.

PfATP6 [5] = target: T1, PfATP6; assay: In vitro activity assay, PfATP6 (membrane-bound); assay type: biochemical; design: pUGpd containing the yeast-optimized coding region of PfATP6 from Plasmodium falciparum; expressed in transfected cells; settings: 1 μM free calcium
Description: Activity assays were performed as described by Longland et al. ([55]) and LeBel et al. ([56]), except that the reaction mixtures were incubated at 30°C instead of 37°C. […] Then, 5.8 mM ATP was added and incubated for an additional 15 min at 30°C. The reaction was stopped with 0.5 mL 6.5% trichloroacetic acid (TCA) on ice, and the mixture was centrifuged at 4°C for 10 min at 16,000 × g; 0.5 mL of the supernatant was added to 1.5 mL of copper acetate buffer (0.25% copper sulfate pentahydrate, 4.6% sodium acetate trihydrate, dissolved in 2 M acetic acid [pH 4.0]) and mixed by vortex-mixing before the addition of 0.25 mL of 5% ammonium molybdate, followed by 0.25 mL METOL buffer (2% p-methyl-aminophenol sulfate, 5% sodium sulfite). Samples were incubated for 10 min, and the absorbance was measured at 870 nm in a spectrophotometer. The Pi standard was 0.4387 g/100 mL KH2PO4.

CO[C@H]1O[C@@H]2O[C@@]3(C)CC[C@H]4[C@H](C)CC[C@@H]([C@H]1C)[C@@]24OO3 [Artemether]
IC50 (PfATP6 [1]): 15.7 µM | IC50 (PfATP6 [2]): 3.4 µM | Fold difference (PfATP6 [2]): 5^e | approximate IC10 (PfATP6 [2]; fitness cost assays, drug pressure): ~1 µM | IC80 (PfATP6 [2]; read-out: approximate yeast IC80): ~1 µM

C[C@@H]1CC[C@H]2[C@@H](C)C(=O)O[C@@H]3O[C@@]4(C)CC[C@@H]1[C@]32OO4 [Artemisinin]
IC50 (PfATP6 [1]): 10.6 µM | IC50 (PfATP6 [2]): 1.8 µM

C[C@H]1[C@H](N2CCS(=O)(=O)CC2)O[C@@H]2O[C@@]3(C)CC[C@H]4[C@H](C)CC[C@@H]1[C@@]24OO3 [Artemisone]
change in cytosolic Ca2+ concentration [3]: significantly increased | change in cytosolic Ca2+ concentration ([3]; listed as artemisone): sustained elevation | IC50 (PfATP6 [1]): 3.6 µM | IC50 (PfATP6 [2]): 0.9 µM | Fold difference (PfATP6 [2]): 4^c

C[C@H]1[C@H](OC(=O)CCC(=O)O)O[C@@H]2O[C@@]3(C)CC[C@H]4[C@H](C)CC[C@@H]1[C@@]24OO3 [Artesunate]
IC50 (PfATP6 [1]): 14.8 µM | IC50 (PfATP6 [2]): 3.7 µM | Fold difference (PfATP6 [2]): 4^d | competition with tagged DHA for PfATP6 (PfATP6 [4]; preincubation with excess artesunate): competed with the tagged DHA

C[C@H]1[C@@H](O)O[C@@H]2O[C@@]3(C)CC[C@H]4[C@H](C)CC[C@@H]1[C@@]24OO3 [DHA, dihydroartemisinin]
IC50 (Plasmodium falciparum): 0.0025 µM | in vitro activity of PfATP6 versus no drug control (PfATP6 [5]): No significant | IC50 (PfATP6 [1]): 23.8 µM | IC50 (PfATP6 [2]): 2.1 µM | Fold difference (PfATP6 [2]): 11^c

Oc1ccc(O)cc1 [benzohydroquinone]
inhibition of PfATP6 in compound screen (PfATP6 [2]): limited success

CC1CCC2C(C)C(OC(=O)CCOCCOCCOCCOCCNC(=O)CCCCC3SCC4NC(=O)NC43)OC3OC4(C)CCC1C32OO4 (stereo not drawn) [biotin-derivatized DHA]
IC50 (Plasmodium falciparum): 0.005 µM | alkylation/labeling of PfATP6 (PfATP6 [4]; membrane extracts and whole yeast, K667[PfATP6], mass spectrometry): alkylated

C[C@@H]1CC[C@H]2[C@@H](C)C(=O)O[C@@H]3O[C@@]4(C)CC[C@@H]1[C@]32O4 [deoxyartemisinin]
in vitro activity of PfATP6 versus no drug control (PfATP6 [5]): No significant

Cc1cc(O)c2c(=O)c3c(O)cc(O)c4c5c(O)cc(O)c6c(=O)c7c(O)cc(C)c8c1c2c(c34)c(c78)c65 [hypericin]
inhibition of PfATP6 in compound screen (PfATP6 [2]): limited success

C[C@H]1O[C@@H](O[C@H]2CC[C@@]3(C)[C@@H](CC[C@]4(C)[C@@H]3C=C[C@]35OC[C@@]6(CCC(C)(C)C[C@H]63)[C@H](O)C[C@]54C)[C@]2(C)CO)[C@H](O)[C@@H](O[C@@H]2O[C@H](CO)[C@@H](O)[C@H](O)[C@H]2O)[C@H]1O [saikosaponin, Saikosaponin D]
concentration at which PfATP6 was inhibited (PfATP6 [2]; inhibited only at high concentrations): > 100 µM
